Reference: patent US6579881B2 (Eisai Co., Ltd., priority 1997, dated 2003)
pKi: −log10 of the molar value.

What was measured:
serotonin 1A receptor = target: T1, serotonin 1A receptor (Rattus norvegicus, UniProt P19327); test: Binding test on [3H] 8-hydroxy-dipropylaminotetralin (serotonin 1A receptor); details: [3H] 8-OH-DPAT 0.5 nM, receptor fraction of rat hippocampus; read-out: 5HT1a
T1 construct: To the receptor fraction of the hippocampus were added a test compound and 0.5 nM of [^3H]; 8-hydroxy-dipropylaminotetralin; from tissue; host or cells: SD rat hippocampus, membrane (receptor) fraction
T1 sequence (P19327 1-422): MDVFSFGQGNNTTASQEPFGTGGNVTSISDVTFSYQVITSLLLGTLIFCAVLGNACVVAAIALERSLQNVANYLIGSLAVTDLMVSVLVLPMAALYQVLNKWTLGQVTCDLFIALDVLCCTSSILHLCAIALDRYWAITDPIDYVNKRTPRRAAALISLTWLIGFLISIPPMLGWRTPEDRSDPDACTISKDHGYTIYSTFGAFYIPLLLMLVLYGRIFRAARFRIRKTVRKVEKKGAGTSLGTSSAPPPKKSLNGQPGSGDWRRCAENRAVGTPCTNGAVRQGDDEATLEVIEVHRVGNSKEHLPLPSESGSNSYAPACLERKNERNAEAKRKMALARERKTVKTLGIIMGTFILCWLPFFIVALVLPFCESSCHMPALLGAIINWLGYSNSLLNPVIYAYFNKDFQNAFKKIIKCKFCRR

serotonin 2 receptor = serotonin 2 receptor (Rattus norvegicus, UniProt P14842); test: Binding test on [3H] ketanserin (serotonin 2 receptor); details: [3H] ketanserin 0.3 nM, receptor fraction of rat cerebral cortex; read-out: 5HT2
α1 adrenalin receptor = test: Binding test on [3H] prazosin (α1 adrenalin receptor); design: species or system rat; details: [3H] prazosin about 0.2 nM, receptor fraction of rat cerebral cortex

Chain of serotonin 2 receptor (P14842 whole entry): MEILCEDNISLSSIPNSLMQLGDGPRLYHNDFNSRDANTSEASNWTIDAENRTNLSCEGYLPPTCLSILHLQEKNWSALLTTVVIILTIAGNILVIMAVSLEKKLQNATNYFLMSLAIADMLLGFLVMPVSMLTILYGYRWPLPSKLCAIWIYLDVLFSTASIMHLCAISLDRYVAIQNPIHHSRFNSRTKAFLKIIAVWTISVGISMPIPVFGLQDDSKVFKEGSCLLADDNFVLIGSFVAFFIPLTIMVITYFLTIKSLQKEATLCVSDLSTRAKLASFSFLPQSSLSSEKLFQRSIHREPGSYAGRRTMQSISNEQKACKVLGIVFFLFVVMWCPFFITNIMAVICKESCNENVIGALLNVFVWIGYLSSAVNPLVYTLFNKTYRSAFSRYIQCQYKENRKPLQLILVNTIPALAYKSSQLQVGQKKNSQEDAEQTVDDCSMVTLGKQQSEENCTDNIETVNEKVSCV

Structure (SMILES)	pKi (serotonin 1A receptor)	pKi (serotonin 2 receptor)	pKi (α1 adrenalin receptor)	melting point
Fc1ccc(CCN2CCC(n3ccc4cc5scnc5cc43)CC2)cc1 [Example 334, 1-[1-(4-fluorophenethyl)piperidin-4-yl]thiazolo[5.4-f]indole]	10.40	< 7.70	6.67	152 to 154 °C
CS(=O)(=O)Oc1ccc2ccn(C3CCN(CCc4ccc(F)cc4)CC3)c2c1 [Example 336, 1-[1-(4-fluorophenethyl)piperidin-4-yl]-6-methanesulfonyloxyindole]	> 9.70	< 7.70	7.27	213 to 215 °C
CNS(=O)(=O)Cc1ccc2ccn(C3CCN(CCc4ccc(F)cc4)CC3)c2c1 [Example 338, 1-[1-(4-fluorophenethyl)piperidin-4-yl]-6-(N-methylsulfamoylmethyl)indole]	10.15	< 7.70	7.67	172 to 175 °C
CC(=O)Nc1ccc2ccn(C3CCN(CCc4ccc(F)cc4)CC3)c2c1 [Example 339, 1-[1-(4-fluorophenethyl)piperidin-4-yl]-6-acetamidoindole]	> 9.70	< 7.70	7.50	195 to 196 °C
CNC(=O)Cc1ccc2ccn(C3CCN(CCc4ccccc4F)CC3)c2c1 [Example 342, 1-[1-(2-fluorophenethyl)piperidin-4-yl]-6-methylcarbamoylmethylindole]	9.19	7.42	7.60	136.5 to 137.4 °C
CCNC(=O)Cc1ccc2ccn(C3CCN(CCc4ccccc4F)CC3)c2c1 [Example 344, 1-[1-(2-fluorophenethyl)piperidin-4-yl]-6-ethylcarbamoylmethylindole]	8.75	8.79	7.13	147 to 148.6 °C
O=C(Cc1ccc2ccn(C3CCN(CCc4ccccc4F)CC3)c2c1)NCCO [Example 346, 1-[1-(2-fluorophenethyl)piperidin-4-yl]-6-(2-hydroxyethyl)carbamoylmethylindole]	7.87	8.83	6.94	127.7 to 128.6 °C
O=C(Cc1ccc2ccn(C3CCN(CCc4ccc(F)cc4)CC3)c2c1)NCC1OCCO1 [Example 347, 1-[1-(4-fluorophenethyl)piperidin-4-yl]-6-(1,3-dioxolan-2-ylmethyl)carbamoylmethylindole]	8.65	9.19	7.35	173.8 to 174.6 °C
CC(=O)NCc1ccc2ccn(C3CCN(CCc4ccccc4F)CC3)c2c1 [Example 352, 1-[1-(2-fluorophenethyl)piperidin-4-yl]-6-acetamidomethylindole]	8.80	9.12	7.01	101 to 102 °C
O=C(CF)NCc1ccc2ccn(C3CCN(CCc4ccc(F)cc4)CC3)c2c1 [Example 366, 1-[1-(4-fluorophenethyl)piperidin-4-yl]-6-fluoroacetamidomethylindole]	9.32	8.69	7.13	106 to 108 °C

Second part, the compound after the results:

pKi (serotonin 1A receptor)	pKi (serotonin 2 receptor)	pKi (α1 adrenalin receptor)	melting point	Structure (SMILES)
9.66	8.09	7.05	148 to 149 °C	CC(=O)NCc1ccc2ccn(C3CCN(CCc4ccc(Cl)cc4)CC3)c2c1 [Example 349, 1-[1-(4-chlorophenethyl)piperidin-4-yl]-6-acetamidomethylindole]
8.72	7.94	6.91	134 to 135 °C	CC(=O)NCc1ccc2ccn(C3CCN(CCc4cccc(F)c4)CC3)c2c1 [Example 350, 1-[1-(3-fluorophenethyl)piperidin-4-yl]-6-acetamidomethylindole]
9.57	< 7.70	6.76	101 to 102 °C	COc1ccc(CCN2CCC(n3ccc4ccc(CNC(C)=O)cc43)CC2)cc1 [Example 351, 1-[1-(4-methoxyphenethyl)piperidin-4-yl]-6-acetamidomethylindole]
9.11	7.90	6.84	156 to 157 °C	O=C1CNC(=O)N1Cc1ccc2ccn(C3CCN(CCc4ccc(F)cc4)CC3)c2c1 [Example 353, 1-[1-(4-fluorophenethyl)piperidin-4-yl]-6-(2,4-imidazolidinedion-3-yl)methylindole]
8.91	8.32	7.04	97 to 98 °C	CC(C)C(=O)NCc1ccc2ccn(C3CCN(CCc4ccc(F)cc4)CC3)c2c1 [Example 354, 1-[1-(4-fluorophenethyl)piperidin-4-yl]-6-isobutyrylaminomethylindole]
8.82	8.47	6.97	116 to 117 °C	O=C(NCc1ccc2ccn(C3CCN(CCc4ccc(F)cc4)CC3)c2c1)C1CC1 [Example 363, 1-[1-(4-fluorophenethyl)piperidin-4-yl]-6-cyclopropanecarboxamidomethylindole]
8.76	8.37	6.54	76 to 78 °C	O=C(CO)NCc1ccc2ccn(C3CCN(CCc4ccc(F)cc4)CC3)c2c1 [Example 364, 1-[1-(4-fluorophenethyl)piperidin-4-yl]-6-hydroxyacetamidomethylindole]
9.38	8.51	7.21	79 to 80 °C	O=C(NCc1ccc2ccn(C3CCN(CCc4ccc(F)cc4)CC3)c2c1)C(F)F [Example 365, 1-[1-(4-fluorophenethyl)piperidin-4-yl]-6-difluoroacetamidomethylindole]
8.79	8.75	7.34	121 to 122 °C	O=C(CCCl)NCc1ccc2ccn(C3CCN(CCc4ccc(F)cc4)CC3)c2c1 [Example 367, 1-[1-(4-fluorophenethyl)piperidin-4-yl]-6-(3-chloropropionylamino)methylindole]
8.54	8.81	6.94	118 to 119 °C	CCC(=O)NCc1ccc2ccn(C3CCN(CCc4ccccc4F)CC3)c2c1 [Example 380, 1-[1-(2-fluorophenethyl)piperidin-4-yl]-6-propionylaminomethylindole]
8.12	8.48	6.79	58 to 59 °C	O=C(CCO)NCc1ccc2ccn(C3CCN(CCc4ccccc4F)CC3)c2c1 [Example 382, 1-[1-(2-fluorophenethyl)piperidin-4-yl]-6-(3-hydroxypropionylamino)methylindole]
8.27	8.74	6.92	151 to 152 °C	O=C(CO)NCc1ccc2ccn(C3CCN(CCc4ccccc4F)CC3)c2c1 [Example 383, 1-[1-(2-fluorophenethyl]piperidin-4-yl]-6-hydroxyacetamidomethylindole]
8.62	9.01	7.67	115 to 116 °C	CN(C)C(=O)NCc1ccc2ccn(C3CCN(CCc4ccc(F)cc4)CC3)c2c1 [Example 385, 1-[1-(4-fluorophenethyl)piperidin-4-yl]-6-N,N-dimethylaminocarbonylaminomethylindole]
